Columns and labels:
Type in all cases: in vivo
[1] = system: Indian mallow; experiment: Test Example 3: weedkilling efficacy through soil treatment; K: Indian mallow; conditions: treatment dosage 315 g/ha
In short: (§1)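 Crop and weed responses were judged three weeks after a uniform surface spray of the water-diluted emulsion at the given g/ha rate. Seeds sat beneath about 1.5 cm of sterilized diluvial soil, and boxes stood in a greenhouse at 25 to 30° C.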

[2] = system: green foxtail; experiment: Test Example 3: weedkilling efficacy through soil treatment; E: green foxtail; conditions: treatment dosage 315 g/ha
In short: as §1

[3] = system: catchweed; experiment: Test Example 4: weedkilling efficacy by foliar treatment; O: catchweed; conditions: treatment dosage 315 g/ha
In short: (§2)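 Seeds are spot-sown into sterilized diluvial soil and covered with about 1.5 cm of soil. After 14 days' greenhouse growth at 25 to 30° C, plants are sprayed on stems and leaves with diluted emulsion at the stated g/ha rate, then scored at 3 weeks.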

[4] = system: Indian mallow; experiment: Test Example 4: weedkilling efficacy by foliar treatment; K: Indian mallow; conditions: treatment dosage 315 g/ha
In short: as §2

[5] = system: barnyard grass; experiment: Test Example 1: weedkilling efficacy, preemergent weed treatment in the submerged state; A: barnyard grass; conditions: treatment dosage 252 g/ha
In short: (§3)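 Pots of alluvial soil were flooded to a 4 cm depth. Mixed weed seeds were sown and 2.5 leaf-stage rice seedlings transplanted. On sowing day, water-diluted emulsion was applied to the water surface (dose in g/ha). After 3 weeks at 25–30 °C, effects were rated.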

[6] = system: crabgrass; experiment: Test Example 3: weedkilling efficacy through soil treatment; D: crabgrass; conditions: treatment dosage 315 g/ha
In short: as §1

[7] = system: green foxtail; experiment: Test Example 4: weedkilling efficacy by foliar treatment; E: green foxtail; conditions: treatment dosage 315 g/ha
In short: as §2

[8] = system: wheat; experiment: Test Example 3: soil treatment, effect on crop; e: wheat; conditions: treatment dosage 315 g/ha
In short: as §1

[9] = system: wheat; experiment: Test Example 4: foliar treatment, effect on crop; e: wheat; conditions: treatment dosage 315 g/ha
In short: as §2

[10] = system: wild oat; experiment: Test Example 3: weedkilling efficacy through soil treatment; G: wild oat; conditions: treatment dosage 315 g/ha
In short: as §1

[11] = system: soybean; experiment: Test Example 4: foliar treatment, effect on crop; d: soybean; conditions: treatment dosage 315 g/ha
In short: as §2

[12] = system: black-grass; experiment: Test Example 4: weedkilling efficacy by foliar treatment; H: black-grass; conditions: treatment dosage 315 g/ha
In short: as §2

[13] = system: barnyard grass; experiment: Test Example 2: weedkilling efficacy, growth period weed treatment in the submerged state; A: barnyard grass; conditions: treatment dosage 252 g/ha
In short: (§4)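 Weeds treated at the 1-2 leaf stage by application of diluted emulsion onto floodwater (4 cm depth, alluvial soil) at specified g/ha. Grown in greenhouse at 25 to 30° C; herbicidal effect rated three weeks after treatment.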

[14] = system: chickweed; experiment: Test Example 4: weedkilling efficacy by foliar treatment; N: chickweed; conditions: treatment dosage 315 g/ha
In short: as §2

[15] = system: wild oat; experiment: Test Example 4: weedkilling efficacy by foliar treatment; G: wild oat; conditions: treatment dosage 315 g/ha
In short: as §2

[16] = system: crabgrass; experiment: Test Example 4: weedkilling efficacy by foliar treatment; D: crabgrass; conditions: treatment dosage 315 g/ha
In short: as §2

[17] = system: beet; experiment: Test Example 3: soil treatment, effect on crop; f: beet; conditions: treatment dosage 315 g/ha
In short: as §1

[18] = system: directly sown rice; experiment: Test Example 3: soil treatment, effect on crop; b: directly sown rice; conditions: treatment dosage 315 g/ha
In short: as §1

[19] = system: Italian ryegrass; experiment: Test Example 4: weedkilling efficacy by foliar treatment; I: Italian ryegrass; conditions: treatment dosage 315 g/ha
In short: as §2

[20] = system: catchweed; experiment: Test Example 3: weedkilling efficacy through soil treatment; O: catchweed; conditions: treatment dosage 315 g/ha
In short: as §1

[21] = system: redroot pigweed; experiment: Test Example 4: weedkilling efficacy by foliar treatment; L: redroot pigweed; conditions: treatment dosage 315 g/ha
In short: as §2

[22] = system: oval-leafed pondweed; experiment: Test Example 2: weedkilling efficacy, growth period weed treatment in the submerged state; C: oval-leafed pondweed; conditions: treatment dosage 252 g/ha
In short: as §4

[23] = system: birds-eye speedwell; experiment: Test Example 4: weedkilling efficacy by foliar treatment; p: birds-eye speedwell; conditions: treatment dosage 315 g/ha
In short: as §2

[24] = system: birds-eye speedwell; experiment: Test Example 3: weedkilling efficacy through soil treatment; p: birds-eye speedwell; conditions: treatment dosage 315 g/ha
In short: as §1

[25] = system: oval-leafed pondweed; experiment: Test Example 1: weedkilling efficacy, preemergent weed treatment in the submerged state; C: oval-leafed pondweed; conditions: treatment dosage 252 g/ha
In short: as §3

[26] = system: soybean; experiment: Test Example 3: soil treatment, effect on crop; d: soybean; conditions: treatment dosage 315 g/ha
In short: as §1

[27] = system: redroot pigweed; experiment: Test Example 3: weedkilling efficacy through soil treatment; L: redroot pigweed; conditions: treatment dosage 315 g/ha
In short: as §1

[28] = system: Italian ryegrass; experiment: Test Example 3: weedkilling efficacy through soil treatment; I: Italian ryegrass; conditions: treatment dosage 315 g/ha
In short: as §1

[29] = system: beet; experiment: Test Example 4: foliar treatment, effect on crop; f: beet; conditions: treatment dosage 315 g/ha
In short: as §2

[30] = system: directly sown rice; experiment: Test Example 4: foliar treatment, effect on crop; b: directly sown rice; conditions: treatment dosage 315 g/ha
In short: as §2

[31] = system: chickweed; experiment: Test Example 3: weedkilling efficacy through soil treatment; N: chickweed; conditions: treatment dosage 315 g/ha
In short: as §1

[32] = system: bulrush; experiment: Test Example 1: weedkilling efficacy, preemergent weed treatment in the submerged state; B: bulrush; conditions: treatment dosage 252 g/ha
In short: as §3

[33] = system: black-grass; experiment: Test Example 3: weedkilling efficacy through soil treatment; H: black-grass; conditions: treatment dosage 315 g/ha
In short: as §1

[34] = system: fig-leafed goosefoot; experiment: Test Example 3: weedkilling efficacy through soil treatment; M: fig-leafed goosefoot; conditions: treatment dosage 315 g/ha
In short: as §1

[35] = system: corn; experiment: Test Example 4: foliar treatment, effect on crop; c: corn; conditions: treatment dosage 315 g/ha
In short: as §2

[36] = system: fig-leafed goosefoot; experiment: Test Example 4: weedkilling efficacy by foliar treatment; M: fig-leafed goosefoot; conditions: treatment dosage 315 g/ha
In short: as §2

[37] = system: corn; experiment: Test Example 3: soil treatment, effect on crop; c: corn; conditions: treatment dosage 315 g/ha
In short: as §1

[38] = system: transplanted rice; experiment: Test Example 1: preemergent weed treatment in the submerged state, effect on crop; a: transplanted rice; conditions: treatment dosage 252 g/ha
In short: as §3

[39] = system: bulrush; experiment: Test Example 2: weedkilling efficacy, growth period weed treatment in the submerged state; B: bulrush; conditions: treatment dosage 252 g/ha
In short: as §4

## CC1=C(c2ccccc2)C(=O)N(C(C)(C)C(=O)Nc2cncc(C(F)(F)F)c2)CO1 [B-3-03]
[1]
  K (Indian mallow) weedkilling efficacy grade: 0 (weed kill ratio 5% or less (practically no effect))
[2]
  E (green foxtail) weedkilling efficacy grade: 5 (weed kill ratio 90% or more, (practically complete withering))
[3]
  O (catchweed) weedkilling efficacy grade: 0 (weed kill ratio 5% or less (practically no effect))
[4]
  K (Indian mallow) weedkilling efficacy grade: 2 (weed kill ratio 20% or more, less than 40%)
[5]
  A (barnyard grass) weedkilling efficacy grade: 5 (weed kill ratio 90% or more, (practically complete withering))
[6]
  D (crabgrass) weedkilling efficacy grade: 5 (weed kill ratio 90% or more, (practically complete withering))
[7]
  E (green foxtail) weedkilling efficacy grade: 5 (weed kill ratio 90% or more, (practically complete withering))
[8]
  e (wheat) effect on crop grade: 0 (weed kill ratio 5% or less (practically no effect))
[9]
  e (wheat) effect on crop grade: 0 (weed kill ratio 5% or less (practically no effect))
[10]
  G (wild oat) weedkilling efficacy grade: 4 (weed kill ratio 70% or more, less than 90%)
[11]
  d (soybean) effect on crop grade: 3 (weed kill ratio 40% or more, less than 70%)
[12]
  H (black-grass) weedkilling efficacy grade: 5 (weed kill ratio 90% or more, (practically complete withering))
[13]
  A (barnyard grass) weedkilling efficacy grade: 5 (weed kill ratio 90% or more, (practically complete withering))
[14]
  N (chickweed) weedkilling efficacy grade: 2 (weed kill ratio 20% or more, less than 40%)
[15]
  G (wild oat) weedkilling efficacy grade: 4 (weed kill ratio 70% or more, less than 90%)
[16]
  D (crabgrass) weedkilling efficacy grade: 5 (weed kill ratio 90% or more, (practically complete withering))
[17]
  f (beet) effect on crop grade: 2 (weed kill ratio 20% or more, less than 40%)
[18]
  b (directly sown rice) effect on crop grade: 4 (weed kill ratio 70% or more, less than 90%)
[19]
  I (Italian ryegrass) weedkilling efficacy grade: 5 (weed kill ratio 90% or more, (practically complete withering))
[20]
  O (catchweed) weedkilling efficacy grade: 0 (weed kill ratio 5% or less (practically no effect))
[21]
  L (redroot pigweed) weedkilling efficacy grade: 2 (weed kill ratio 20% or more, less than 40%)
[22]
  C (oval-leafed pondweed) weedkilling efficacy grade: 5 (weed kill ratio 90% or more, (practically complete withering))
[23]
  P (birds-eye speedwell) weedkilling efficacy grade: 1 (weed kill ratio 5% or more, less than 20%)
[24]
  P (birds-eye speedwell) weedkilling efficacy grade: 3 (weed kill ratio 40% or more, less than 70%)
[25]
  C (oval-leafed pondweed) weedkilling efficacy grade: 5 (weed kill ratio 90% or more, (practically complete withering))
[26]
  d (soybean) effect on crop grade: 0 (weed kill ratio 5% or less (practically no effect))
[27]
  L (redroot pigweed) weedkilling efficacy grade: 0 (weed kill ratio 5% or less (practically no effect))
[28]
  I (Italian ryegrass) weedkilling efficacy grade: 5 (weed kill ratio 90% or more, (practically complete withering))
[29]
  f (beet) effect on crop grade: 0 (weed kill ratio 5% or less (practically no effect))
[30]
  b (directly sown rice) effect on crop grade: 5 (weed kill ratio 90% or more, (practically complete withering))
[31]
  N (chickweed) weedkilling efficacy grade: 0 (weed kill ratio 5% or less (practically no effect))
[32]
  B (bulrush) weedkilling efficacy grade: 5 (weed kill ratio 90% or more, (practically complete withering))
[33]
  H (black-grass) weedkilling efficacy grade: 5 (weed kill ratio 90% or more, (practically complete withering))
[34]
  M (fig-leafed goosefoot) weedkilling efficacy grade: 1 (weed kill ratio 5% or more, less than 20%)
[35]
  c (corn) effect on crop grade: 4 (weed kill ratio 70% or more, less than 90%)
[36]
  M (fig-leafed goosefoot) weedkilling efficacy grade: 2 (weed kill ratio 20% or more, less than 40%)
[37]
  c (corn) effect on crop grade: 4 (weed kill ratio 70% or more, less than 90%)
[38]
  a (transplanted rice) effect on crop grade: 0 (weed kill ratio 5% or less (practically no effect))
[39]
  B (bulrush) weedkilling efficacy grade: 5 (weed kill ratio 90% or more, (practically complete withering))

Source: patent US9738634B2, “Heterocyclic amide compound and herbicide” (SYNGENTA PARTICIPATIONS AG, priority 2013, dated 2017)
